Data published in ChEMBL document CHEMBL1201862, “PubChem BioAssay data set” (2004).
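Cultured in 96-well plates, cells were exposed to test compound for 48 hours across five concentrations. GI50 marks 50% less growth.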 Calls of active or inactive are those of the source. No stated cut-off is given here; in the data, active = GI50 up to about 1.1 µM and inactive = higher.

What was measured:
Test in all cases: NCI tumour cell line growth inhibition, 48 h
A498 = system: A498
ACHN = system: ACHN
CAKI-1 = system: CAKI-1
HCC 2998 = system: HCC 2998
HCT-116 = system: HCT-116
K562 = system: K562
M14 = system: M14
MCF7 = system: MCF7
MDA-MB-231 = system: MDA-MB-231
MDA-MB-435 = system: MDA-MB-435
MDA-N = system: MDA-N
NCI/ADR-RES = system: NCI/ADR-RES
PC-3 = system: PC-3
RXF 393 = system: RXF 393
SK-MEL-28 = system: SK-MEL-28
SK-MEL-2 = system: SK-MEL-2
SK-MEL-5 = system: SK-MEL-5
SR = system: SR
UACC-257 = system: UACC-257

Measured: GI50

O=C(NCCCCCN1CCC2(CCCCC2)CC1)C(C1CCCCC1)C1CCCCC1
inactive: A498 4.26 µM | ACHN 3.67 µM | CAKI-1 4.1 µM | HCC 2998 1.3 µM | HCT-116 4.44 µM | K562 1.52 µM | M14 1.68 µM | MCF7 2.13 µM | MDA-MB-231 5.11 µM | MDA-MB-435 1.85 µM | MDA-N 1.84 µM | NCI/ADR-RES 3.18 µM | PC-3 2.77 µM | RXF 393 4.24 µM | SK-MEL-28 1.83 µM | SK-MEL-2 2.21 µM | SK-MEL-5 1.61 µM | SR 1.57 µM | UACC-257 1.82 µM

Cc1cc[n+]2c(c1)-c1cc(C)cc[n+]1CC2
inactive: A498 > 100 µM | ACHN > 100 µM | CAKI-1 > 100 µM | HCC 2998 > 100 µM | HCT-116 > 100 µM | K562 > 100 µM | M14 > 100 µM | MCF7 > 100 µM | MDA-MB-231 > 71.1 µM | MDA-MB-435 > 100 µM | MDA-N > 100 µM | NCI/ADR-RES > 100 µM | PC-3 > 76.7 µM | RXF 393 > 100 µM | SK-MEL-28 > 100 µM | SK-MEL-2 > 100 µM | SK-MEL-5 > 100 µM | SR > 100 µM | UACC-257 > 100 µM

CC12CCC(=O)C=C1CCC1C2C(O)CC2(C)C(c3csc(N)n3)CCC12.O=S(=O)(O)c1ccc(Br)cc1 (configuration not stated)
inactive: A498 > 100 µM | ACHN > 100 µM | CAKI-1 > 100 µM | HCC 2998 > 100 µM | HCT-116 > 100 µM | K562 > 100 µM | M14 > 100 µM | MCF7 > 100 µM | MDA-MB-231 > 100 µM | MDA-MB-435 > 100 µM | MDA-N > 100 µM | NCI/ADR-RES > 100 µM | PC-3 > 100 µM | RXF 393 > 100 µM | SK-MEL-28 > 100 µM | SK-MEL-2 > 100 µM | SK-MEL-5 > 100 µM | SR > 100 µM | UACC-257 > 100 µM

NCC(=O)Nc1ccc(S(=O)(=O)O)c2cc(S(=O)(=O)O)cc(S(=O)(=O)O)c12
inactive: A498 > 100 µM | ACHN > 100 µM | CAKI-1 > 100 µM | HCC 2998 > 100 µM | HCT-116 > 100 µM | K562 > 100 µM | M14 > 100 µM | MCF7 > 100 µM | MDA-MB-231 > 100 µM | MDA-MB-435 > 100 µM | MDA-N > 100 µM | NCI/ADR-RES > 100 µM | PC-3 > 100 µM | RXF 393 > 100 µM | SK-MEL-28 > 100 µM | SK-MEL-2 > 100 µM | SK-MEL-5 > 100 µM | SR > 100 µM | UACC-257 > 100 µM

COc1ccc(C2OC(=O)c3ccc4ccccc4c32)c(C)c1 (configuration not stated)
inactive: A498 7.41 µM | ACHN 20.6 µM | CAKI-1 13.3 µM | HCC 2998 3.85 µM | HCT-116 4.93 µM | K562 3.55 µM | M14 6.73 µM | MCF7 5.65 µM | MDA-MB-231 6.12 µM | MDA-MB-435 2.36 µM | MDA-N 2 µM | NCI/ADR-RES 2.37 µM | PC-3 9.08 µM | RXF 393 5.33 µM | SK-MEL-28 11.9 µM | SK-MEL-2 2.1 µM | SK-MEL-5 3.54 µM | SR 3.86 µM | UACC-257 27.5 µM

CCOC(=O)/C=C1\Nc2ccccc2C12CCc1c([nH]c3ccccc13)C2C(=O)OCC (configuration not stated)
inactive: A498 30.1 µM | ACHN 49.2 µM | CAKI-1 11.7 µM | HCC 2998 59.3 µM | HCT-116 17.6 µM | K562 48.4 µM | M14 25.2 µM | MCF7 17.5 µM | MDA-MB-231 18 µM | MDA-MB-435 6.27 µM | MDA-N 7.85 µM | NCI/ADR-RES 11.8 µM | PC-3 > 100 µM | RXF 393 > 100 µM | SK-MEL-28 61.2 µM | SK-MEL-2 45.5 µM | SK-MEL-5 21.8 µM | SR 25.8 µM | UACC-257 24 µM

O=S1(=O)c2ccccc2C(Nc2ccccc2)N1c1ccccc1 (configuration not stated)
inactive: A498 > 100 µM | ACHN > 100 µM | CAKI-1 > 100 µM | HCC 2998 > 100 µM | HCT-116 > 100 µM | K562 27.6 µM | MCF7 > 100 µM | MDA-MB-231 > 100 µM | MDA-MB-435 45.1 µM | MDA-N > 100 µM | NCI/ADR-RES 45 µM | PC-3 > 100 µM | RXF 393 > 100 µM | SK-MEL-28 > 100 µM | SK-MEL-2 98.6 µM | SK-MEL-5 > 100 µM | SR 83.8 µM | UACC-257 > 100 µM
